pIC50: −log10 of the molar value.
Legend:
[1] = Inhibition of IL5 in mouse Y16 cells; format: functional; parameters: concentration or dose not given beside the values
[2] = Inhibition of IL5 in mouse Y16 cells […]; format: functional, cell-based

| SMILES | pIC50 [2] | Inhibition [1] |
| --- | --- | --- |
| O=C(O)c1ccc(/C=C/C(=O)c2ccccc2O)cc1 | < 4.30 | -18.7% |
| Nc1ccc(/C=C/C(=O)c2c(O)cccc2OCC2CCCCC2)cc1 | < 4.30 | 16.4% |
| O=C(O)c1ccc(/C=C/C(=O)c2ccc(OCc3ccccc3)cc2O)cc1 | 4.85 | 100% |
| O=C(/C=C/c1ccc(O)cc1)c1ccccc1O | 4.32 | 50% |
| CCc1ccc(/C=C/C(=O)c2c(O)cccc2OCC2CCCCC2)cc1 | 4.55 | 82.3% |
| O=C(O)c1ccc(/C=C/C(=O)c2ccccc2OCc2ccccc2)cc1 | < 4.30 | 15% |
| O=C(/C=C/c1ccccc1)c1c(O)cccc1OCC1CCCCC1 | 4.84 | 99.6% |
| O=C(/C=C/c1ccc(O)cc1)c1ccc(OCc2ccccc2)cc1O | 4.54 | 77.6% |
| COCOc1ccc(/C=C/C(=O)c2c(O)cccc2OCc2ccccc2)cc1 | < 4.30 | 47.8% |
| COCOc1ccc(/C=C/C(=O)c2c(O)cccc2OCC2CCCCC2)cc1 | < 4.30 | 13% |
| O=C(/C=C/c1ccc(O)cc1)c1c(O)cccc1OCc1ccccc1 | 4.60 | 78.8% |
| O=C(O)c1ccc(CCC(=O)c2c(O)cccc2OCC2CCCCC2)cc1 | < 4.30 | 15.6% |
| O=C(/C=C/c1ccc(O)cc1)c1ccc(OCC2CCCCC2)cc1O | 4.67 | 59.7% |
| O=C(O)c1ccccc1/C=C/C(=O)c1c(O)cccc1OCC1CCCCC1 | < 4.30 | -18.9% |

Continued by rising pIC50 [2], values first:

| pIC50 [2] | SMILES | Inhibition [1] |
| --- | --- | --- |
| 4.85 | O=C(O)c1cccc(/C=C/C(=O)c2c(O)cccc2OCC2CCCCC2)c1 | 98.1% |
| 4.90 | O=C(/C=C/c1ccc(O)cc1)c1c(O)cccc1OCC1CCCCC1 | 99% |
| 4.97 | O=C(O)c1ccc(/C=C/C(=O)c2ccc(OCC3CCCCC3)cc2O)cc1 | 100% |
| 4.99 | O=C(O)c1ccc(/C=C/C(=O)c2c(O)cccc2OCc2ccccc2)cc1 | 100% |
| 5.03 | O=C(O)c1ccc(/C=C/C(=O)c2c(O)cccc2OCC2CCCCC2)cc1 | 100% |
| 5.15 | O=C(/C=C/c1ccc(Cl)cc1)c1c(O)cccc1OCC1CCCCC1 | 98.8% |
| 5.15 | NS(=O)(=O)c1ccc(/C=C/C(=O)c2c(O)cccc2OCc2ccccc2)cc1 | 99.5% |
| 5.19 | CC(=O)Nc1ccc(/C=C/C(=O)c2c(O)cccc2OCC2CCCCC2)cc1 | 99.2% |
| 5.19 | O=C(/C=C/c1ccc(CO)cc1)c1c(O)cccc1OCC1CCCCC1 | 99.3% |
| 5.35 | O=Cc1ccc(/C=C/C(=O)c2c(O)cccc2OCC2CCCCC2)cc1 | 99.8% |
| 5.41 | COC(=O)c1ccc(/C=C/C(=O)c2c(O)cccc2OCC2CCCCC2)cc1 | 98.6% |
| 5.74 | NS(=O)(=O)c1ccc(/C=C/C(=O)c2c(O)cccc2OCC2CCCCC2)cc1 | 99.5% |

Source: ChEMBL document CHEMBL1144517, “Structural requirement of chalcones for the inhibitory activity of interleukin-5” (Bioorg Med Chem, 2007)
